Earlier results on one compound are cited in patent US20140332438A1, “WATER-SOLUBLE MELOXICAM GRANULES” (Boehringer Ingelheim Vetmedica GmbH, priority 2002, published 2014).

SMILES strings stand for the structures.

For the data set the following is noted: aqueous solution, according to EP-A-0 945 134.

With `Cc1cnc(NC(=O)C2=C(O)c3ccccc3S(=O)(=O)N2C)s1` [meloxicam, 4-hydroxy-2-methyl-N-(5-methyl-2-thiazolyl)-2H-1,2-benzothiazine-3-carboxamide-1,1-dioxide], the solubility in water result is reported as “does not dissolve readily in water”.
